Reference: patent US9309263B2, “Fused multi-cyclic sulfone compounds as inhibitors of beta-secretase and methods of use thereof” (AMGEN INC., priority 2013, dated 2016)
Read-outs that look alike come from different tables or passages of the source.

Key:
Cathepsin D (Cat D) = Cathepsin D (Cat D) (Homo sapiens, UniProt P07339); assay: In vitro enzymatic Cathepsin D (Cat D) FRET assay; assay type: biochemical
Experimental: In Vitro Enzymatic Cathepsin D (Cat D) FRET (Fluorescence Resonance Energy Transfer) Assay
Recombinant Cat D was expressed in CHO cells. The assay buffer for CathepsinD is 0.05 M citrate pH 3.5, 10% DMSO final, 5 mM CHAPS. The Cat D enzyme (9 nM) is pre-incubated for one hour with inhibitors, typically in about 1 uL of DMSO according to a serial dilution, is added thereto. The assays are effectively started by the addition of different FRET substrates (20 nM for Cat D) and the combination is incubated for one hour. The FRET assay is terminated with by addition of Tris buffer, which raises the pH to neutrality, and the fluorescence is determined. The FRET substrate is a peptide with commercially available fluorophore and quencher, on opposite sides of the BACE cleavage site. The Cat D substrate peptide sequence is based on sequence #1 of Table 1 from Gulnik et al. FEBS Letters v413 p 379-384 1997. Proteolytic cleavage of the FRET substrate releases quenching of fluorescence (Cat D excitation 500 nm and emission 580 nm). […]
See, for instance, examples 8, 12, 15, 16, 18, 21-23, 24, 25, 26, 29, 30, 32, 41-42, 45, 53, 54, 57, 63, 67-69, 72-74, 76, 79-81, 83 & 84 (to point to just a few; referring to data in Table 2). […] See, for instance, examples 8, 12, 15, 18, 21-23, 25, 29, 30, 32, 41-42, 45, 54, 57, 67-68, 72-73, 76, 80-81, 84, 86, 91-92 & 100 (to point out those from compound examples 1-100; and with reference to data in Table 2).

[1] = biological target: Beta Secretase enzyme (BACE) (Homo sapiens, UniProt P56817); assay: In vitro enzymatic BACE FRET assay; assay type: biochemical; settings: read-out: BACE1 FRET assay IC50
Experimental: In Vitro Enzymatic BACE FRET (Fluorescence Resonance Energy Transfer) Assay (Enzyme Assay Data in the Example Table I)
The assay buffer used in this screen is 0.05 M acetate, pH 4.2, 10% DMSO final, 100 uM genapol (which is a nonionic detergent, below its Critical Micelle Concentration). The Beta Secretase enzyme (0.2 nM) is pre-incubated for one hour with inhibitors, typically in about 1 uL of DMSO according to a serial dilution, are added thereto. This assay is effectively started by the addition of FRET substrate (50 nM) and the combination is incubated for one hour. The FRET assay is terminated with by addition of Tris buffer, which raises the pH to neutrality, and the fluorescence is determined. The FRET substrate is a peptide with commercially available fluorophore and quencher, on opposite sides of the BACE cleavage site. Proteolytic cleavage of the FRET substrate releases quenching of fluorescence (excitation 488 nm and […]).

[2] = system: Aβ 40 in conditioned medium of cells stably expressing Amyloid Precursor Protein (APP); assay: In vitro BACE cell-based assay (Aβ 40 sandwich ELISA); settings: Homo sapiens, HEK293
Experimental: In Vitro BACE Cell-Based Assay
The cell-based assay measures inhibition or reduction of […] in conditioned medium of test compound treated cells expressing amyloid precursor protein.
Cells stably expressing Amyloid Precursor Protein (APP) were plated at a density of 40K cells/well in 96 well plates (Costar). The cells were cultivated for 24 hours at 37° C. and 5% CO2 in DMEM supplemented with 10% FBS. The test compounds were then added to cells in 10-point dose response concentrations with the starting concentration being either 100 μM or 10 μM. The compounds were diluted from stock solutions in DMSO and the final DMSO concentration of the test compounds on cells was 0.1%. After 24 h of incubation with the test compounds the supernatant conditioned media was collected and the Aβ 40 levels were determined using a sandwich ELISA. The IC50 of the compound was calculated from the percent of control or percent inhibition of Aβ 40 as a function of the concentration of the test compound.
The sandwich ELISA to detect Aβ 40 was performed in 96 well microtiter plates, which were pre-treated with goat anti-rabbit IgG (Pierce). The capture and detecting antibody pair that were used to detect Aβ 40 from cell supernatants were affinity purified pAb40 (Biosource) and biotinylated 6E10 (Signet Labs Inc.), respectively. The optimal concentration for the pAb40 antibody was 3 μg/ml in Superblock/TBS (Pierce) that was supplemented with 0.05% Tween 20 (Sigma). Optimal concentration for the detection antibody 6E10-biotinylated was 0.5 μg/ml in Superblock/TBS (Pierce) that had been supplemented with 2% normal goat serum and 2% normal mouse serum.
Cellular supernatants were incubated with the capture antibody for 3 h at 4° C., followed by 3 wash steps in TBS-tween (0.05%). The detecting antibody incubation was for 2 h at 4° C., again followed by the wash steps as described previously. The final readout of the ELISA is Time-Resolved Fluorescence (counts per minute) using Delfia reagents Streptavidin-Europium and Enhancement solutions (Perkin Elmer) and the Victor 2 multilabel counter (Perkin Elmer).

[3] = Cathepsin D FRET assay, read-out: CatD IC50
[4] = average IC50, HEK cell assay, Aβ 40 readout
[5] = text summary referring to data in Table 2

Sequence of Cathepsin D (Cat D) (P07339 65-412, species assumed): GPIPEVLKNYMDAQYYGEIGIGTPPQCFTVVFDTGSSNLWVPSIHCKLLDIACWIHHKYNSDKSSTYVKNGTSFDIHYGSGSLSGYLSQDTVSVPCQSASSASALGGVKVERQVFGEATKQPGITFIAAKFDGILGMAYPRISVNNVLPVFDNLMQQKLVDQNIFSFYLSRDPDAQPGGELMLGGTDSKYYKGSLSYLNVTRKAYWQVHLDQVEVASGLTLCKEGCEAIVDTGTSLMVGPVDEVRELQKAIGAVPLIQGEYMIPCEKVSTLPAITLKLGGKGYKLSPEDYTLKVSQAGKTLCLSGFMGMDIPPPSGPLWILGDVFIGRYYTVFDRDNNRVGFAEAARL
Sequence of Beta Secretase enzyme (BACE) (P56817 46-501): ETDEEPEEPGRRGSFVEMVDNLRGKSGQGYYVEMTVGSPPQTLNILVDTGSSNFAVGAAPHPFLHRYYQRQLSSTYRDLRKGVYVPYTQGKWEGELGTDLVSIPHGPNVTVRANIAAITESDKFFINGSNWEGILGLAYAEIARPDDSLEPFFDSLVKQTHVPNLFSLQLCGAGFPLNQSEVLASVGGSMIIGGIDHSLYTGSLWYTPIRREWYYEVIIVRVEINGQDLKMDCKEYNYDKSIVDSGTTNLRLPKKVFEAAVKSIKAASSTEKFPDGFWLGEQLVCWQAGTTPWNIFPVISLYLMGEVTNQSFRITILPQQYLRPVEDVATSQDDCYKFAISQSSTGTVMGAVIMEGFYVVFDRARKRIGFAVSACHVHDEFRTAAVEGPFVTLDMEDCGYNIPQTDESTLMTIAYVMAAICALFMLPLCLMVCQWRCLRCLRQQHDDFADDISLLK

Row | SMILES | IC50 (Cathepsin D (Cat D); read-out: CatD IC50) [µM] | IC50 ([1]; average IC50) [µM] | IC50 ([2]; HEK cell, average IC50) [µM] | IC50 (Cathepsin D (Cat D); [3]) [µM] | IC50 ([1]; average IC50, in vitro enzymatic BACE FRET assay) [µM] | IC50 [2, 4] [µM] | IC50 (Cathepsin D (Cat D); [5]) [µM]
1 | Cc1cc(Cl)cnc1C(=O)Nc1ccc2c(c1)[C@]1(C)N=C(N)C(C)(C)S(=O)(=O)[C@H]1CCO2 (racemic) [Example 4, N-((4aRS,11bRS)-2-amino-3,3,11b-trimethyl-4,4-dioxido-4a,5,6,11b-tetrahydro-3H-benzo[6,7]oxepino[4,5-b][1,4]thiazin-10-yl)-5-chloro-3-methylpicolinamide] | > 100 | 0.004 | 0.01 |  |  |  | 
2 | CC#C[C@@H](C)Oc1ccc(C(=O)Nc2ccc3c(c2)[C@@]2(C)N=C(N)C(C)(C)S(=O)(=O)[C@@H]2CCO3)nc1 (single isomer, unassigned) [Example 68] | 1990 | 0.002 | 0.001 |  |  |  | > 1200
3 | CC#C[C@H](C)Oc1cnc2c(Nc3ccc4c(c3)[C@@]3(C)N=C(N)C(C)(C)S(=O)(=O)[C@@H]3CCO4)ncc(F)c2c1 (single isomer, unassigned) [Example 70] | 237 | 0.003 | 0.026 |  |  |  | 
4 | CC#C[C@@H](C)Oc1cnc2c(Nc3ccc4c(c3)[C@@]3(C)N=C(N)C(C)(C)S(=O)(=O)[C@@H]3CCO4)ncc(F)c2c1 (single isomer, unassigned) [Example 71] | 186 | 0.12 | 2.36 |  |  |  | 
5 | Cc1cc(Cl)cnc1C(=O)Nc1ccc2c(c1)[C@@]1(C)N=C(N)C(C)(C)S(=O)(=O)[C@@H]1CCO2 [Example 6a, N-((4aR,11bR)-2-amino-3,3,11b-trimethyl-4,4-dioxido-4a,5,6,11b-tetrahydro-3H-benzo[6,7]oxepino[4,5-b][1,4]thiazin-10-yl)-5-chloro-3-methylpicolinamide] | > 100 | 0.002 | 0.006 |  |  |  | 
6 | CC1(C)C(N)=N[C@]2(C)c3cc(Nc4ncccc4C#N)ccc3OCC[C@H]2S1(=O)=O [Example 7, 2-(((4aR,11bR)-2-amino-3,3,11b-trimethyl-4,4-dioxido-4a,5,6,11b-tetrahydro-3H-[1]benzoxepino[4,5-b][1,4]thiazin-10-yl)amino)-3-pyridinecarbonitrile] | 252 | 0.116 | 0.124 |  |  |  | 
7 | COc1cnc(C(=O)Nc2ccc3c(c2)[C@@]2(C)N=C(N)C(C)(C)S(=O)(=O)[C@H]2CCC3)cn1 [Example 8, N-((4aS,11bR)-2-amino-3,3,11b-trimethyl-4,4-dioxido-3,4a,5,6,7,11b-hexahydrobenzo[3,4]cyclohepta[1,2-b][1,4]thiazin-10-yl)-5-methoxy-2-pyrazinecarboxamide] | 1890 | 0.172 | 0.031 |  |  |  | > 1200
8 | Cc1cc(Cl)cnc1C(=O)Nc1ccc2c(c1)[C@@]1(C)N=C(N)C(C)(C)S(=O)(=O)[C@H]1CCC2 [Example 9, N-((4a8,11bR)-2-amino-3,3,11b-trimethyl-4,4-dioxido-3,4a,5,6,7,11b-hexahydrobenzo[3,4]cyclohepta[1,2-b][1,4]thiazin-10-yl)-5-chloro-3-methyl-2-pyridinecarboxamide] | 757 | 0.021 | 0.02 |  |  |  | 
9 | COc1cnc(C(=O)Nc2ccc3c(c2)[C@@]2(C)N=C(N)C(C)(C)S(=O)(=O)[C@@H]2CCC3)cn1 [Example 10, N-((4aR,11bR)-2-amino-3,3,11b-trimethyl-4,4-dioxido-3,4a,5,6,7,11b-hexahydrobenzo[3,4]cyclohepta[1,2-b][1,4]thiazin-10-yl)-5-methoxy-2-pyrazinecarboxamide] | 340 | 0.011 | 0.004 |  |  |  | 
10 | Cc1cc(Cl)cnc1C(=O)Nc1ccc2c(c1)[C@@]1(C)N=C(N)C(C)(C)S(=O)(=O)[C@@H]1CCC2 [Example 11, N-((4aR,11bR)-2-amino-3,3,11b-trimethyl-4,4-dioxido-3,4a,5,6,7,11b-hexahydrobenzo[3,4]cyclohepta[1,2-b][1,4]thiazin-10-yl)-5-chloro-3-methyl-2-pyridinecarboxamide] | 217 | 0.005 | 0.008 |  |  |  | 

Next, values leading:

Row | IC50 (Cathepsin D (Cat D); read-out: CatD IC50) [µM] | IC50 ([1]; average IC50) [µM] | IC50 ([2]; HEK cell, average IC50) [µM] | IC50 (Cathepsin D (Cat D); [3]) [µM] | IC50 ([1]; average IC50, in vitro enzymatic BACE FRET assay) [µM] | IC50 [2, 4] [µM] | IC50 (Cathepsin D (Cat D); [5]) [µM] | SMILES
11 | 689 | 0.005 | 0.001 |  |  |  |  | CC#CC(C)Oc1cnc(C(=O)Nc2ccc3c(c2)[C@@]2(C)N=C(N)C(C)(C)S(=O)(=O)[C@@H]2CCO3)cn1 (mixture of isomers) [Example 14, N-((4aR,11bR)-2-amino-3,3,11b-trimethyl-4,4-dioxido-4a,5,6,11b-tetrahydro-3H-[1]benzoxepino[4,5-b][1,4]thiazin-10-yl)-5-(((1R)-1-methyl-2-butyn-1-yl)oxy)-2-pyrazinecarboxamide,N-((4aR,11bR)-2-amino-3,3,11b-trimethyl-4,4-dioxido-4a,5,6,11b-tetrahydro-3H-[1]benzoxepino[4,5-b][1,4]thiazin-10-yl)-5-(((1S)-1-methyl-2-butyn-1-yl)oxy)-2-pyrazinecarboxamide]
12 |  |  |  | 1060 | 0.056 | 0.067 |  | CC(C#N)Oc1ccc(C(=O)Nc2ccc3c(c2)[C@@]2(C)N=C(N)C(C)(C)S(=O)(=O)[C@@H]2CCO3)nc1 (mixture of isomers) [Example 125, N-((4aR,11bR)-2-amino-3,3,11b-trimethyl-4,4-dioxido-4a,5,6,11b-tetrahydro-3H-[1]benzoxepino[4,5-b][1,4]thiazin-10-yl)-5-((1R)-1-cyanoethoxy)-2-pyridinecarboxamide, N-((4aR,11bR)-2-amino-3,3,11b-trimethyl-4,4-dioxido-4a,5,6,11b-tetrahydro-3H-[1]benzoxepino[4,5-b][1,4]thiazin-10-yl)-5-((15)-1-cyanoethoxy)-2-pyridinecarboxamide]
13 | 811 | 0.081 | 1.01 |  |  |  |  | CC#C[C@H](C)Oc1ccc(C(=O)Nc2ccc3c(c2)[C@@]2(C)N=C(N)C(C)(C)S(=O)(=O)[C@@H]2CCO3)nc1 (single isomer, unassigned) [Example 69]
14 | > 100 | 0.003 | 0.004 |  |  |  |  | Cc1cc(Cl)cnc1C(=O)Nc1ccc2c(c1)[C@@]1(C)N=C(N)C(C)(C)S(=O)(=O)[C@H]1CCO2 [Example 6b, N-((4aS,11bR)-2-amino-3,3,11b-trimethyl-4,4-dioxido-4a,5,6,11b-tetrahydro-3H-benzo[6,7]oxepino[4,5-b][1,4]thiazin-10-yl)-5-chloro-3-methylpicolinamide]
15 |  |  |  | > 400 |  | 0.008 |  | CC#CCOc1cnc(C(=O)Nc2ccc3c(c2)[C@@]2(C)N=C(N)C(C)(C)S(=O)(=O)[C@]2(F)CCO3)cn1 [Example 94, N-((4aR,11bR)-2-amino-4a-fluoro-3,3,11b-trimethyl-4,4-dioxido-4a,5,6,11b-tetrahydro-3H-[1]benzoxepino[4,5-b][1,4]thiazin-10-yl)-5-(2-butyn-1-yloxy)-2-pyrazinecarboxamide]
